Reference: patent publication US11746100B2 (GLOBAL BLOOD THERAPEUTICS, INC., priority 2020, dated 2023)

Biological target: T1, human ferroportin (Homo sapiens, UniProt Q9NP59)
T1 construct: luciferase reporter (read with the Nano-Glo Luciferase Assay System); expressed in transfected cells; host or cells: CHO cells, stably transfected, expression induced with doxycycline
T1 sequence (Q9NP59 1-571): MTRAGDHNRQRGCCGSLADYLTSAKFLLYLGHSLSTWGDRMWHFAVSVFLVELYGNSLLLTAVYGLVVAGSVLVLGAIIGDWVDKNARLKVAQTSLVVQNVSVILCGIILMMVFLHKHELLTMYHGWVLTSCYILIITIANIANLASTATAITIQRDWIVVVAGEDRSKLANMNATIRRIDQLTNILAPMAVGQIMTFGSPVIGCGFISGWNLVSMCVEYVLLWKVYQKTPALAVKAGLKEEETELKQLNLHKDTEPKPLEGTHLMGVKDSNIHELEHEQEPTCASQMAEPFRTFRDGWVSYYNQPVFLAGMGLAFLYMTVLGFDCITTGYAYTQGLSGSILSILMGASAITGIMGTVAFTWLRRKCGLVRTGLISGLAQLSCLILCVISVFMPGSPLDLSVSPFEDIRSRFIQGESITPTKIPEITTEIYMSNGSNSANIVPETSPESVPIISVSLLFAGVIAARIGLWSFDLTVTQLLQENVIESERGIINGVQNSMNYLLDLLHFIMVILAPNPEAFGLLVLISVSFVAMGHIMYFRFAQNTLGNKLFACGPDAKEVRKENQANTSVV
Experiment: Biological in-vitro ferroportin internalization assay (luciferase reporter)
Assay type: cell-based
Conditions: average pEC50; stably-transfected CHO cell line expressing human ferroportin tagged to a luciferase reporter; 6 h incubation with test compound
Outline: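 Read-out is Nano-Glo luciferase signal after 6 h compound exposure, with average pEC50 derived. Cells are a stable CHO line carrying luciferase-tagged human ferroportin, pre-loaded 24 h with ferric ammonium citrate and doxycycline-induced for 24 h.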

| Structure (SMILES) | pEC50 |
| --- | --- |
| COc1cccc(NC(=O)CN(C)c2nc(-c3cn(C)cn3)nc3c2CCC3)c1 [Compound 272, N-(3-methoxyphenyl)-2-{methyl[2-(1-methyl-1H-imidazol-4-yl)-5H,6H,7H-cyclopenta[d]pyrimidin-4-yl]amino}acetamide] | 7.8 |
| C[C@H](C(=O)Nc1ccnnc1)N(C)c1nc(-c2cc3ccccc3cn2)nc2c1CCC2 [Compound 273, (2R)-2-{[2-(isoquinolin-3-yl)-5H,6H,7H-cyclopenta[d]pyrimidin-4-yl](methyl)amino}-N-(pyridazin-4-yl)propanamide] | 7.8 |
| CN(CC(=O)Nc1ccccc1F)c1nc(-c2ccccn2)nc2c1CCC2 [Compound 22, N-(2-fluorophenyl)-2-{methyl[2-(pyridin-2-yl)-5H,6H,7H-cyclopenta[d]pyrimidin-4-yl]amino}acetamide] | 7 |
| COc1ccc(NC(=O)CN(C)c2nc(-c3cc4ncsc4cn3)nc3c2CCC3)cn1 [Compound 329, N-(6-methoxypyridin-3-yl)-2-[methyl(2-{[1,3]thiazolo[5,4-c]pyridin-6-yl}-5H,6H,7H-cyclopenta[d]pyrimidin-4-yl)amino]acetamide] | 6.8 |
| Cc1ccc(NC(=O)CN(C)c2nc(-c3cc4ccccc4cn3)nc3c2CCC3)cn1 [Compound 222, 2-{[2-(isoquinolin-3-yl)-5H,6H,7H-cyclopenta[d]pyrimidin-4-yl](methyl)amino}-N-(6-methylpyridin-3-yl)acetamide] | 7.2 |
| CC(C)NC(=O)CN(C)c1nc(-c2cc(OCCN(C)C)ccn2)nc2c1CC(C)(C)C2 [Compound 455, 2-[(2-{4-[2-(dimethylamino)ethoxy]pyridin-2-yl}-6,6-dimethyl-5H,6H,7H-cyclopenta[d]pyrimidin-4-yl)(methyl)amino]-N-(propan-2-yl)acetamide] | 7.7 |
| COc1ccnc(-c2nc3c(c(N(C)[C@@H]4CCN(c5ccccc5)C4=O)n2)CCC3)c1 [Compound 132, (3R)-3-{[2-(4-methoxypyridin-2-yl)-5H,6H,7H-cyclopenta[d]pyrimidin-4-yl](methyl)amino}-1-phenylpyrrolidin-2-one] | 7.3 |
| CN(CC(=O)Nc1ccn(C)n1)c1nc(-c2cc3cn[nH]c3cn2)nc2c1CCC2 [Compound 232, 2-[methyl(2-{1H-pyrazolo[3,4-c]pyridin-5-yl}-5H,6H,7H-cyclopenta[d]pyrimidin-4-yl)amino]-N-(1-methyl-1H-pyrazol-3-yl)acetamide] | 7 |
| CC(C)[C@@H](C(=O)NC(C)(C)C)N(C)c1nc(-c2ccccn2)nc2c1CCC2 [Compound 115, (2S)—N-tert-butyl-3-methyl-2-{methyl[2-(pyridin-2-yl)-5H,6H,7H-cyclopenta[d]pyrimidin-4-yl]amino}butanamide] | 7.1 |
| CN(CC(=O)Nc1ccc(F)cc1)c1nc(-c2cc3cn[nH]c3cn2)nc2c1CCC2 [Compound 289, N-(4-fluorophenyl)-2-[methyl(2-{1H-pyrazolo[3,4-c]pyridin-5-yl}-5H,6H,7H-cyclopenta[d]pyrimidin-4-yl)amino]acetamide] | 7.5 |
| CN(CC(=O)Nc1ccc(F)nc1)c1nc(-c2cn(C)cn2)nc2c1CCC2 [Compound 129, N-(6-fluoropyridin-3-yl)-2-{methyl[2-(1-methyl-1H-imidazol-4-yl)-5H,6H,7H-cyclopenta[d]pyrimidin-4-yl]amino}acetamide] | 7.2 |
| COc1ncc(NC(=O)CN(C)c2nc(-c3cn(C)cn3)nc3c2CCC3)cn1 [Compound 186, N-(2-methoxypyrimidin-5-yl)-2-{methyl[2-(1-methyl-1H-imidazol-4-yl)-5H,6H,7H-cyclopenta[d]pyrimidin-4-yl]amino}acetamide] | 7 |

The remaining lines, values ahead:

| pEC50 | Structure (SMILES) |
| --- | --- |
| 7.7 | COc1ccnc(-c2nc3c(c(N(C)CC(=O)NC(C)(C)CO)n2)CCC3)c1 [Compound 136, N-(1-hydroxy-2-methylpropan-2-yl)-2-{[2-(4-methoxypyridin-2-yl)-5H,6H,7H-cyclopenta[d]pyrimidin-4-yl](methyl)amino}acetamide] |
| 7.4 | CN(CC(=O)N[C@@H]1CCOC1)c1nc(-c2cc(OCC(C)(C)O)ccn2)nc2c1CCC2 [Compound 422, 2-({2-[4-(2-hydroxy-2-methylpropoxy)pyridin-2-yl]-5H,6H,7H-cyclopenta[d]pyrimidin-4-yl}(methyl)amino)-N-[(3R)-oxolan-3-yl]acetamide] |
| 8.0 | CN(C)CCOc1ccnc(-c2nc3c(c(N(C)CC(=O)NC(C)(C)C)n2)CCC3)c1 [Compound 348, N-tert-butyl-2-[(2-{4-[2-(dimethylamino)ethoxy]pyridin-2-yl}-5H,6H,7H-cyclopenta[d]pyrimidin-4-yl)(methyl)amino]acetamide] |
| 7.7 | CC(=O)NCCOc1ccnc(-c2nc3c(c(N(C)CC(=O)NC(C)(C)C)n2)CCC3)c1 [Compound 369, N-tert-butyl-2-({2-[4-(2-acetamidoethoxy)pyridin-2-yl]-5H,6H,7H-cyclopenta[d]pyrimidin-4-yl}(methyl)amino)acetamide] |
| 7.6 | Cc1ccnc(-c2nc3c(c(N(C)CC(=O)NC(C)(C)CO)n2)CCC3)c1 [Compound 62, N-(1-hydroxy-2-methylpropan-2-yl)-2-{methyl[2-(4-methylpyridin-2-yl)-5H,6H,7H-cyclopenta[d]pyrimidin-4-yl]amino}acetamide] |
| 7.1 | CNCCOc1ccnc(-c2nc3c(c(NCC(=O)NC(C)(C)C)n2)CCC3)c1 [Compound 485, N-tert-butyl-2-[(2-{4-[2-(methylamino)ethoxy]pyridin-2-yl}-5H,6H,7H-cyclopenta[d]pyrimidin-4-yl)amino]acetamide] |
| 8.3 | CCOc1ccnc(-c2nc3c(c(N(C)CC(=O)NC(C)(C)C)n2)CCC3)c1 [Compound 467, N-tert-butyl-2-{[2-(4-ethoxypyridin-2-yl)-5H,6H,7H-cyclopenta[d]pyrimidin-4-yl](methyl)amino}acetamide] |
| 8.3 | CN(CC(=O)NC(C)(C)C)c1nc(-c2cc(OCCn3ccnc3)ccn2)nc2c1CCC2 [Compound 465, N-tert-butyl-2-[(2-{4-[2-(1H-imidazol-1-yl)ethoxy]pyridin-2-yl}-5H,6H,7H-cyclopenta[d]pyrimidin-4-yl)(methyl)amino]acetamide] |
| 6.6 | CC(C)(C)NC(=O)CN(CCO)c1nc(-c2ccccn2)nc2c1CCC2 [Compound 37, N-tert-butyl-2-[(2-hydroxyethyl)[2-(pyridin-2-yl)-5H,6H,7H-cyclopenta[d]pyrimidin-4-yl]amino]acetamide] |
| 7.6 | CN(CC(=O)NC(C)(C)C)c1nc(-c2cc(-c3cnn(C)c3)ccn2)nc2c1CCC2 [Compound 352, N-tert-butyl-2-[methyl({2-[4-(1-methyl-1H-pyrazol-4-yl)pyridin-2-yl]-5H,6H,7H-cyclopenta[d]pyrimidin-4-yl})amino]acetamide] |
| 7.8 | CN(CC(=O)NC(C)(C)C)c1nc(-c2cc3[nH]ncc3cn2)nc2c1CCC2 [Compound 176, N-tert-butyl-2-[methyl(2-{1H-pyrazolo[4,3-c]pyridin-6-yl}-5H,6H,7H-cyclopenta[d]pyrimidin-4-yl)amino]acetamide] |
| 7.6 | CN(C)CCCc1ccnc(-c2nc3c(c(N(C)CC(=O)NC(C)(C)C)n2)CCC3)c1 [Compound 475, N-tert-butyl-2-[(2-{4-[3-(dimethylamino)propyl]pyridin-2-yl}-5H,6H,7H-cyclopenta[d]pyrimidin-4-yl)(methyl)amino]acetamide] |
| 8.2 | CN(CC(=O)NC(C)(C)C)c1nc(-c2cc(OCCN3CCOCC3)ccn2)nc2c1CCC2 [Compound 460, N-tert-butyl-2-[methyl(2-{4-[2-(morpholin-4-yl)ethoxy]pyridin-2-yl}-5H,6H,7H-cyclopenta[d]pyrimidin-4-yl)amino]acetamide] |
| 7.3 | COc1ccnc(-c2nc3c(c(N(C)CC(=O)N[C@@H]4CCCC[C@@H]4O)n2)CCC3)c1 (stereo in doubt) [Compound 168, N-[(1R,2S)-2-hydroxycyclohexyl]-2-{[2-(4-methoxypyridin-2-yl)-5H,6H,7H-cyclopenta[d]pyrimidin-4-yl](methyl)amino}acetamide] |
| 6.9 | CN(CC(=O)Nc1cnn(C)c1)c1nc(-c2cc(OCC(F)(F)F)ccn2)nc2c1CCC2 [Compound 177, 2-[methyl({2-[4-(2,2,2-trifluoroethoxy)pyridin-2-yl]-5H,6H,7H-cyclopenta[d]pyrimidin-4-yl})amino]-N-(1-methyl-1H-pyrazol-4-yl)acetamide] |
| 7.9 | CN(CC(=O)NC(C)(C)C)c1nc(-c2cc(OCCO)ccn2)nc2c1CCC2 [Compound 44, N-tert-butyl-2-({2-[4-(2-hydroxyethoxy)pyridin-2-yl]-5H,6H,7H-cyclopenta[d]pyrimidin-4-yl}(methyl)amino)acetamide] |
| 7.5 | CN(CC(=O)NC(C)(C)C)c1nc(-c2cc(C3CC3)ccn2)nc2c1CCC2 [Compound 57, N-tert-butyl-2-{[2-(4-cyclopropylpyridin-2-yl)-5H,6H,7H-cyclopenta[d]pyrimidin-4-yl](methyl)amino}acetamide] |
